US9790228B2, “Heterocyclic kinase inhibitors” (Intellikine LLC, priority 2008, dated 2017)
Read-outs that look alike come from different tables or passages of the source.

What was measured:
[1] = test system: Balb/c splenic B cells; experiment: B cell activation and proliferation assay (Alamar Blue); format: cell-based, mouse; conditions: Mus musculus, B-cell
Procedure: The ability of one or more subject compounds to inhibit B cell activation and proliferation is determined according to standard procedures known in the art. For example, an in vitro cellular proliferation assay is established that measures the metabolic activity of live cells. The assay is performed in a 96 well microtiter plate using Alamar Blue reduction. Balb/c splenic B cells are purified over a Ficoll-Paque™ PLUS gradient followed by magnetic cell separation using a MACS B cell Isolation Kit (Miletenyi). Cells are plated in 90 ul at 50,000 cells/well in B Cell Media (RPMI+10% FBS+Penn/Strep+50 uM bME+5 mM HEPES). A compound disclosed herein is diluted in B Cell Media and added in a 10 ul volume. Plates are incubated for 30 min at 37 C and 5% CO2 (0.2% DMSO final concentration). A 50 ul B cell stimulation cocktail is then added containing either 10 ug/ml LPS or 5 ug/ml F(ab′)2 Donkey anti-mouse IgM plus 2 ng/ml recombinant mouse IL4 in B Cell Media. Plates are incubated for 72 hours at 37° C. and 5% CO2. A volume of 15 uL of Alamar Blue reagent is added to each well and plates are incubated for 5 hours at 37 C and 5% CO2. Alamar Blue fluoresce is read at 560Ex/590Em, and IC50 or EC50 values are calculated using GraphPad Prism 5.

[2] = target: p110δ/p85α (Homo sapiens (Human), UniProt O00329); experiment: PI3K δ inhibition assay (TLC lipid kinase or HTRF); format: biochemical
Chain of p110δ/p85α (O00329 whole entry): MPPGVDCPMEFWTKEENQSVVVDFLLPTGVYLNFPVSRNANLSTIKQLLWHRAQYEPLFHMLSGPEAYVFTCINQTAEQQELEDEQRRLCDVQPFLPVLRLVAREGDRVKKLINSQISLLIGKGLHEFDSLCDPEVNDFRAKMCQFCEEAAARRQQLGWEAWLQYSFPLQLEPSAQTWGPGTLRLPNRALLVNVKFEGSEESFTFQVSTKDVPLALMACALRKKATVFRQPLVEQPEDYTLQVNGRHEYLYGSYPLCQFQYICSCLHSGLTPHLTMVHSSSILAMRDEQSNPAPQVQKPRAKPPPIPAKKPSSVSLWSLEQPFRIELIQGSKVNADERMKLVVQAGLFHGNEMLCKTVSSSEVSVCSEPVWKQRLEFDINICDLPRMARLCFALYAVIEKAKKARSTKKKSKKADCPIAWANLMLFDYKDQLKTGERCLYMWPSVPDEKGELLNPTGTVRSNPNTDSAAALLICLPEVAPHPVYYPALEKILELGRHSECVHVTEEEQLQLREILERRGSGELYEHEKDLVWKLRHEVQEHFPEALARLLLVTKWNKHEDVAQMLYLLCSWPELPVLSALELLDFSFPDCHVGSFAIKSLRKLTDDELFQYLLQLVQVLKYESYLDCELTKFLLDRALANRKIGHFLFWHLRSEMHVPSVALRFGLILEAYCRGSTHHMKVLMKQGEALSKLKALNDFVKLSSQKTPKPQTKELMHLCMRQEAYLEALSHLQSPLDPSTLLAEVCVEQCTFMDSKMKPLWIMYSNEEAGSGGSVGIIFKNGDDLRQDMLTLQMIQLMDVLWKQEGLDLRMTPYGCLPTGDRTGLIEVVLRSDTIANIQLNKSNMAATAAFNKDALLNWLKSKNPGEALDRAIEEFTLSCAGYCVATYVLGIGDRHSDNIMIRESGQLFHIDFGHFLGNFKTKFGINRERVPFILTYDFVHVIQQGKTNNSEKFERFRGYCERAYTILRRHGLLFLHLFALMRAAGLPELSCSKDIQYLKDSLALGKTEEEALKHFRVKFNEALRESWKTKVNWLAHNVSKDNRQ
Chain of p110δ/p85α (P27986 whole entry partner): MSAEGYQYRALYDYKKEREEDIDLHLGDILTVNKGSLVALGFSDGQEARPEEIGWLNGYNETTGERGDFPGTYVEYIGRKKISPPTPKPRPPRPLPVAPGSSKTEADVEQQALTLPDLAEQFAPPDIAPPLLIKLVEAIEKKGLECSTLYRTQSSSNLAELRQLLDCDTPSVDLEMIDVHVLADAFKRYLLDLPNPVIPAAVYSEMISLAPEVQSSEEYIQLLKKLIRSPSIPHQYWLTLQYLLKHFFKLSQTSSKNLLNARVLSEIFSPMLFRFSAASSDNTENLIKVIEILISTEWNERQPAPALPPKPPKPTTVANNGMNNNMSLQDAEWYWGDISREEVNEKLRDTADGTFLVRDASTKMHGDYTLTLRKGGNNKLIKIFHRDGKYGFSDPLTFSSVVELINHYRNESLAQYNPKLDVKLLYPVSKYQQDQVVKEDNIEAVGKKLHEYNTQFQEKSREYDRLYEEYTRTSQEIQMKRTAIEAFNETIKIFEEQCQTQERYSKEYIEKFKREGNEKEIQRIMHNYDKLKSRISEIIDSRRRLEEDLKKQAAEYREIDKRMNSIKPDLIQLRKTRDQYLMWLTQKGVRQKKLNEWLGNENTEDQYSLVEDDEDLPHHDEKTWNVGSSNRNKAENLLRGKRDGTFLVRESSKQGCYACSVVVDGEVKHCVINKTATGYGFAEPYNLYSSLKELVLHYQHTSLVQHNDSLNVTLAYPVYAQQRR
Procedure: (§1) Class I PI3-Ks can be either purchased (p110α/p85α, p110β/p85α, p110δ/p85α from Upstate, and p110γ from Sigma) or expressed as previously described (Knight et al., 2004). IC50 values are measured using either a standard TLC assay for lipid kinase activity (described below) or a high-throughput membrane capture assay. Kinase reactions are performed by preparing a reaction mixture containing kinase, inhibitor (2% DMSO final concentration), buffer (25 mM HEPES, pH 7.4, 10 mM MgCl2), and freshly sonicated phosphatidylinositol (100 μg/ml). Reactions are initiated by the addition of ATP containing 10 μCi of γ-32P-ATP to a final concentration 10 or 100 μM and allowed to proceed for 5 minutes at room temperature. For TLC analysis, reactions are then terminated by the addition of […] 1N HCl followed by 160 μl CHCl3:MeOH (1:1). The biphasic mixture is vortexed, briefly centrifuged, and the organic phase is transferred to a new tube using a gel loading pipette tip precoated with CHCl3. This extract is spotted on TLC plates and developed for 3-4 hours in a 65:35 solution of n-propanol:1M acetic acid. The TLC plates are then dried, exposed to a phosphorimager screen (Storm, Amersham), and quantitated. For each compound, kinase activity is measured at 10-12 inhibitor concentrations representing two-fold dilutions from the highest concentration tested (typically, 200 μM).
(§2) Other commercial kits or systems for assaying PI3-K activities are available. The commercially available kits or systems can be used to screen for inhibitors and/or agonists of PI3-Ks including but not limited to PI 3-Kinase α, β, δ, and γ. Anr exemplary system is PI3-Kinase (human) HTRF™ Assay from Upstate. […] Briefly, the assay is a time resolved FRET assay that indirectly measures PIP3 product formed by the activity of a PI3-K. The kinase reaction is performed in a microtitre plate (e.g., a 384 well microtitre plate). The total reaction volume is approximately 20 ul per well. In the first step, each well receives 2 ul of test compound in 20% dimethylsulphoxide resulting in a 2% DMSO final concentration. Next, approximately 14.5 ul of a kinase/PIP2 mixture (diluted in 1× reaction buffer) is added per well for a final concentration of 0.25-0.3 ug/ml kinase and 10 uM PIP2. The plate is sealed and incubated for 15 minutes at room temperature. To start the reaction, 3.5 ul of ATP (diluted in 1× reaction buffer) is added per well for a final concentration of 10 uM ATP. The plate is sealed and incubated for 1 hour at room temperature. The reaction is stopped by adding 5 ul of Stop Solution per well and then 5 ul of Detection Mix is added per well. The plate is sealed, incubated for 1 hour at room temperature, and then read on an appropriate plate reader. Data is analyzed and IC50s are generated using GraphPad Prism 5.

[3] = target: p110γ (Homo sapiens (Human), UniProt P48736); experiment: PI3K γ inhibition assay (TLC lipid kinase or HTRF); format: biochemical
Chain of p110γ (P48736 whole entry): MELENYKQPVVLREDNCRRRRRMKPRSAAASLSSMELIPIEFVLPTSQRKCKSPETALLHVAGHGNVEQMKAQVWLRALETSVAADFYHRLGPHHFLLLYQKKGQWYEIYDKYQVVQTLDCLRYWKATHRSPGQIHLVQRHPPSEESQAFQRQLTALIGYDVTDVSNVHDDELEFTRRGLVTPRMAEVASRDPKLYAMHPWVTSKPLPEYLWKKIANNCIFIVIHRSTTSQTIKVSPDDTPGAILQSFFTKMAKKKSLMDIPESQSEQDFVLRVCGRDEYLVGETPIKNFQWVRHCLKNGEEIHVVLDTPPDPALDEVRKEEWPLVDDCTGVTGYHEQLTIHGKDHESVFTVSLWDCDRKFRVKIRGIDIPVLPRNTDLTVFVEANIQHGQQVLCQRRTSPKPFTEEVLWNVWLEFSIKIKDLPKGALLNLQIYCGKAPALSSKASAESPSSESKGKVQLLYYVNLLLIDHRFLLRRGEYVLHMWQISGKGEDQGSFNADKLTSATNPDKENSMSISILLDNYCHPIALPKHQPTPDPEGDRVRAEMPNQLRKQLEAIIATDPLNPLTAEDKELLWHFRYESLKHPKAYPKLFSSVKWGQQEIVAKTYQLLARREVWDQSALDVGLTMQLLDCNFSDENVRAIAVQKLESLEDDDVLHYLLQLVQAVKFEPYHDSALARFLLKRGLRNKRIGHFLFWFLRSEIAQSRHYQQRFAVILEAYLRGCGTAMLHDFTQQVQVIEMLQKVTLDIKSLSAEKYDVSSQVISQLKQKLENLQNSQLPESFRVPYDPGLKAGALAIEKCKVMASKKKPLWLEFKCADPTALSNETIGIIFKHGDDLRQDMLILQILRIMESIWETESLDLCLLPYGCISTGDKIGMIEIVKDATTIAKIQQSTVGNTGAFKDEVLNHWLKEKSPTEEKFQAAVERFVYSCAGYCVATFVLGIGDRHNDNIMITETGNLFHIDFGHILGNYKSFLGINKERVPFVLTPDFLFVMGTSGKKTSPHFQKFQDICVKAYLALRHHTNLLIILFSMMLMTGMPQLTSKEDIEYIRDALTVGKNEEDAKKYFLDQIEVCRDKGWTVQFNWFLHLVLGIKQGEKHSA
Procedure: as §1, §2

[4] = target: p110β/p85α (Homo sapiens, UniProt P42338); experiment: PI3K β inhibition assay (TLC lipid kinase or HTRF); format: biochemical
Chain of p110β/p85α (P42338 whole entry, looked up): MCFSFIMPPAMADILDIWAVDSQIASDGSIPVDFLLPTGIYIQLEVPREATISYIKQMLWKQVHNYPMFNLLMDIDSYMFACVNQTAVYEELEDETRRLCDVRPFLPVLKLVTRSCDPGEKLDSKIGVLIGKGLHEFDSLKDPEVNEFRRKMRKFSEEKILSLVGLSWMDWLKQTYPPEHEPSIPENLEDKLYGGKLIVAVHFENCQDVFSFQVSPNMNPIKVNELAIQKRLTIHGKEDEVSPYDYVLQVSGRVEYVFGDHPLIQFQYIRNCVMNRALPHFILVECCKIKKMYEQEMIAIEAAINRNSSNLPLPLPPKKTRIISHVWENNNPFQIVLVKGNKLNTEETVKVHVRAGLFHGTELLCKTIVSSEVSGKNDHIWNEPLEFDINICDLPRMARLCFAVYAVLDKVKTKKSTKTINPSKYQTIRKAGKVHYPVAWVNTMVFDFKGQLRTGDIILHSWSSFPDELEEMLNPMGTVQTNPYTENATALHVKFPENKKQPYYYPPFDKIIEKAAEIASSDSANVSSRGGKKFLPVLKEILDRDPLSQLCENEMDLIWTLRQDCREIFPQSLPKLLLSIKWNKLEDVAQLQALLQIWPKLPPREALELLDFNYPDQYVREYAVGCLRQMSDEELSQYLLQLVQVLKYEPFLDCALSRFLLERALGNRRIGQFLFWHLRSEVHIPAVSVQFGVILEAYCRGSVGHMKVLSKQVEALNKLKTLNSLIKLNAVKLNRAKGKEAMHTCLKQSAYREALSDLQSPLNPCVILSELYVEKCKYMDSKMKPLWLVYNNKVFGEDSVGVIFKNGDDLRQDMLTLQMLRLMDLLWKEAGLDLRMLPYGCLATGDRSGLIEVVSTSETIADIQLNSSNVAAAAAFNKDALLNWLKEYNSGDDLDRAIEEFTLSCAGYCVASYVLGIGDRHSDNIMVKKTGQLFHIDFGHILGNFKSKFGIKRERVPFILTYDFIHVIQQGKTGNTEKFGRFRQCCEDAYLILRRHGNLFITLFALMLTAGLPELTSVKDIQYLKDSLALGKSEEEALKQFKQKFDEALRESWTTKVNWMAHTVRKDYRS
Procedure: as §1, §2

[5] = target: p110α/p85α (Homo sapiens (Human), UniProt P42336); experiment: PI3K α inhibition assay (TLC lipid kinase or HTRF); format: biochemical
Chain of p110α/p85α (P42336 whole entry): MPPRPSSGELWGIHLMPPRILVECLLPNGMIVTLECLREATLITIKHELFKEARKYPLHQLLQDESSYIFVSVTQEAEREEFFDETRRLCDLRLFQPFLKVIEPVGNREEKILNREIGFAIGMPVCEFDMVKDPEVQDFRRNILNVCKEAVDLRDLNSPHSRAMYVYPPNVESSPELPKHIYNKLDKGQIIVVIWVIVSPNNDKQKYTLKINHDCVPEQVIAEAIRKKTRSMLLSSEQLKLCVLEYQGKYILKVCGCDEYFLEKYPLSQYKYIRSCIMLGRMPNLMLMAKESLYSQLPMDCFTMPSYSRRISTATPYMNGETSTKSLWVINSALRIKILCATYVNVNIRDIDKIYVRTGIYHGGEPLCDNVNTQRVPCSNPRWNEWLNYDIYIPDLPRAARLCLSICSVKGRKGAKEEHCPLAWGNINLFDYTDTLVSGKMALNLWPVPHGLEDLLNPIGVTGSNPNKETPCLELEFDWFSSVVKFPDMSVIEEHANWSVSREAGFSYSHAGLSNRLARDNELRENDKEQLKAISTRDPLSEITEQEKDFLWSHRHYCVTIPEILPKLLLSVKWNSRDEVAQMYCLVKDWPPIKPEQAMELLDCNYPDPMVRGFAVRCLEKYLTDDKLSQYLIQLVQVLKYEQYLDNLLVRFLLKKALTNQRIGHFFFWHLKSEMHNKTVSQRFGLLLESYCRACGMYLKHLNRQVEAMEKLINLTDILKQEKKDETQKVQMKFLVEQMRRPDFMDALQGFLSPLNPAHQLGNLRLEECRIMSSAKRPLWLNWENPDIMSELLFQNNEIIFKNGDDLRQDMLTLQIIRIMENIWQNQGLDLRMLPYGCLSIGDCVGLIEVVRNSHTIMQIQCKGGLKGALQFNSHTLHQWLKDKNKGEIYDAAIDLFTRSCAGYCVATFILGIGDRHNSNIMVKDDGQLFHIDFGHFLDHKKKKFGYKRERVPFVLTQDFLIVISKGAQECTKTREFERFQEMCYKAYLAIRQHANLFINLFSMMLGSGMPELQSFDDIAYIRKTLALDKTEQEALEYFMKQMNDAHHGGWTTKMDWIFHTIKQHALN
Chain of p110α/p85α (P27986 whole entry partner): as the sequence (P27986 whole entry partner) above
Procedure: as §1, §2

Row | IC50 [2] | IC50 [3] | IC50 ([4]; read-out: PI3K β IC50) | IC50 [5] | SMILES | EC50 [1] | IC50 ([4]; PI3K β IC50)
1 | < 100 nM | > 1000 nM | – | – | Cc1ccccc1-c1nc2ccccc2n1CCn1nc(-c2cc(O)cc(F)c2)c2c(N)ncnc21 [Compound 127] | 100 to 1000 nM | –
2 | < 100 nM | < 100 nM | > 1000 nM | > 1000 nM | CCc1nc2ccccc2cc1Cn1nc(-c2ccc3nc(NC(C)=O)sc3c2)c2c(N)ncnc21 [Compound 98] | – | –
3 | > 1000 nM | > 1000 nM | > 1000 nM | > 1000 nM | Nc1ncnc2c1c(/C=C1/CCNC1=O)nn2Cc1cc2ccccc2nc1-c1ccccc1F [Compound 193] | – | –
4 | 100 to 1000 nM | > 1000 nM | > 1000 nM | > 1000 nM | CC(c1cc2ccccc2nc1N1CCN(C)CC1)n1cnc2c(N)ncnc21 (centres unmarked) [Compound 89] | – | –
5 | < 100 nM | 100 to 1000 nM | > 1000 nM | > 1000 nM | Cn1c(=O)c(Cn2nc(-c3cc(O)cc(F)c3)c3c(N)ncnc32)cc2ccccc21 [Compound 112] | – | –
6 | 100 to 1000 nM | 100 to 1000 nM | > 1000 nM | > 1000 nM | Nc1ncnc2c1c(-c1cccc(O)c1)nn2Cc1cc2ccccc2nc1-c1ccccc1F [Compound 91] | – | –
7 | < 100 nM | 100 to 1000 nM | > 1000 nM | > 1000 nM | CCn1c(=O)c(Cn2nc(-c3ccc4nc(NC(C)=O)sc4c3)c3c(N)ncnc32)nc2ccccc21 [Compound 118] | – | –
8 | < 100 nM | 100 to 1000 nM | > 1000 nM | > 1000 nM | CC(=O)Nc1nc2ccc(-c3nn(Cc4cc5ccccc5nc4-n4ccnc4C)c4ncnc(N)c34)cc2s1 [Compound 170] | – | –
9 | > 1000 nM | > 1000 nM | > 1000 nM | > 1000 nM | CN1CCN(c2nc3ccccc3cc2CNc2ncnc3[nH]cnc23)CC1 [Compound 87] | – | –
10 | < 100 nM | < 100 nM | 100 to 1000 nM | 100 to 1000 nM | CCc1nc2ccccc2cc1Cn1nc(-c2ccc3nc(N)sc3c2)c2c(N)ncnc21 [Compound 99] | – | –
11 | < 100 nM | < 100 nM | > 1000 nM | 100 to 1000 nM | CCn1c(=O)c(Cn2nc(-c3ccc4nc(N)sc4c3)c3c(N)ncnc32)nc2ccccc21 [Compound 119] | – | –
12 | < 100 nM | 100 to 1000 nM | > 1000 nM | > 1000 nM | CC(Nc1ncnc2[nH]cnc12)c1cc2ccccc2nc1-c1ccccc1 (centres unmarked) [Compound 93] | – | –
13 | 100 to 1000 nM | > 1000 nM | > 1000 nM | > 1000 nM | CCn1c(=O)c(Cn2nc(-c3cccc(O)c3)c3c(N)ncnc32)nc2ccccc21 [Compound 116] | – | –
14 | 100 to 1000 nM | > 1000 nM | > 1000 nM | > 1000 nM | Cn1c(=O)c(Cn2nc(-c3cccc(O)c3)c3c(N)ncnc32)cc2ccccc21 [Compound 111] | – | –
15 | 100 to 1000 nM | > 1000 nM | > 1000 nM | > 1000 nM | CC(C)n1c(=O)c(Cn2nc(-c3cccc(O)c3)c3c(N)ncnc32)cc2ccccc21 [Compound 110] | – | –
16 | 100 to 1000 nM | > 1000 nM | > 1000 nM | > 1000 nM | Nc1ncnc2c1c(-c1cccc(O)c1)nn2Cc1cc2ccccc2[nH]c1=O [Compound 109] | – | –
17 | 100 to 1000 nM | > 1000 nM | > 1000 nM | > 1000 nM | Cc1ccccc1-c1nc2ccccc2nc1Cn1nc(-c2cccc(O)c2)c2c(N)ncnc21 [Compound 108] | – | –
18 | < 100 nM | 100 to 1000 nM | > 1000 nM | > 1000 nM | CCc1nc2ccccc2cc1Cn1nc(-c2cccc(O)c2)c2c(N)ncnc21 [Compound 96] | – | –

The remaining lines, values behind:

Row | SMILES | IC50 [2] | IC50 [3] | IC50 ([4]; read-out: PI3K β IC50) | IC50 [5] | EC50 [1] | IC50 ([4]; PI3K β IC50)
19 | Nc1ncnc2c1c(-c1cnc3[nH]ccc3c1)nn2Cc1cc2ccccc2nc1N1CCCC1 [Compound 23] | < 100 nM | – | – | – | < 100 nM | –
20 | Nc1ncnc2c1c(-c1cc(O)cc(F)c1)nn2Cc1cc2ccccc2nc1-c1ccccc1C(F)(F)F [Compound 45] | < 100 nM | 100 to 1000 nM | – | – | < 100 nM | –
21 | CC(C)c1ccccc1-c1nc2ccccc2cc1Cn1nc(C#C[C@@H](C)O)c2c(N)ncnc21 [Compound 16] | < 100 nM | – | – | – | 100 to 1000 nM | –
22 | CC(c1cc2ccccc2nc1N1CCCC1)n1nc(-c2cc(O)cc(F)c2)c2c(N)ncnc21 (centres unmarked) [Compound 30] | < 100 nM | < 100 nM | – | – | < 100 nM | –
23 | Cc1cccc2cc(Cn3nc(I)c4c(N)ncnc43)c(N3CCN(C)CC3)nc12 [Compound 11] | < 100 nM | – | – | – | < 100 nM | –
24 | NCc1ccc(F)cc1-c1nc2ccccc2cc1Cn1nc(-c2cc(O)cc(F)c2)c2c(N)ncnc21 [Compound 26] | < 100 nM | > 1000 nM | – | – | < 100 nM | –
25 | Nc1ncnc2c1c(-c1cc(O)cc(F)c1)nn2Cc1cnc2ccccc2c1 [Compound 61] | < 100 nM | < 100 nM | – | – | < 100 nM | –
26 | Nc1ncnc2c1c(-c1cc(O)cc(F)c1)nn2Cc1cc2ccccc2nc1NC1CCC1 [Compound 42] | < 100 nM | – | – | – | < 100 nM | –
27 | CNc1ncnc2c1c(-c1cc(O)cc(F)c1)nn2Cc1cc2ccccc2nc1N(C)CCN1CCOCC1 [Compound 76] | > 1000 nM | > 1000 nM | > 1000 nM | > 1000 nM | – | –
28 | Cc1cccc2cc(Cn3nc(-c4cc(O)cc(F)c4)c4c(N)ncnc43)c(N3CCOCC3)nc12 [Compound 65] | < 100 nM | < 100 nM | 100 to 1000 nM | 100 to 1000 nM | – | –
29 | NC(=O)c1nn(Cc2cc3ccccc3nc2-c2ccccc2F)c2ncnc(N)c12 [Compound 191] | 100 to 1000 nM | > 1000 nM | – | > 1000 nM | – | > 1000 nM
30 | Cc1cccc2cc(Cn3nc(-c4cc(O)cc(F)c4)c4c(N)ncnc43)c(N3CCN(C)CC3)nc12 [Compound 12] | < 100 nM | – | – | – | < 100 nM | –
31 | Nc1ncnc2c1c(-c1cc(O)cc(F)c1)nn2Cc1cc2ccccc2nc1N1CCCCC1 [Compound 20] | < 100 nM | – | – | – | < 100 nM | –
32 | Cc1cccc2cc(Cn3nc(-c4cccc(O)c4)c4c(N)ncnc43)c(N3CCN(C)CC3)nc12 [Compound 13] | < 100 nM | – | – | – | < 100 nM | –
33 | COc1ccccc1-c1nc2ccccc2cc1Cn1nc(-c2cc(O)cc(F)c2)c2c(N)ncnc21 [Compound 15] | < 100 nM | – | – | – | < 100 nM | –
34 | Cc1cccc2cc(Cn3nc(-c4cccc(O)c4)c4c(N)ncnc43)c(N3CCOCC3)nc12 [Compound 66] | < 100 nM | < 100 nM | 100 to 1000 nM | > 1000 nM | – | –
35 | Nc1ncnc2c1c(-c1cc(O)cc(F)c1)nn2Cc1cc2ccccc2nc1-c1ccccc1F [Compound 19] | < 100 nM | – | – | – | < 100 nM | –
36 | CN1CCN(c2nc3ccccc3cc2Cn2cnc3c(N)ncnc32)CC1 [Compound 67] | > 1000 nM | > 1000 nM | – | > 1000 nM | – | > 1000 nM
37 | Nc1ncnc2c1c(-c1cc(O)cc(F)c1)nn2Cc1cc2ccccc2nc1NC1CC1 [Compound 29] | 100 to 1000 nM | > 1000 nM | > 1000 nM | > 1000 nM | – | –
